# Tests used:
# [1] = DPPH test for the removal of free radicals (activity as free-radical scavengers); settings: for EC50 (effective relative concentration, c(test compound)/c(DPPH), at which 50% of the free radical DPPH had been removed): DPPH 100 μmol/l in methanol, absorption at 515 nm read until the decrease was less than 2% per hour
# Method: The activity of example compounds 1 to 16 as free-radical scavengers was compared with that of a traditional free-radical scavenger. The DPPH (1,1-diphenyl-2-picrylhydrazyl) test for the removal of free radicals was used.
# DPPH was dissolved in methanol to a concentration of 100 μmol/l. A series of dilutions of the example compounds, vitamin C, α-tocopherol, BHT, ferulic acid and of the naturally occurring N-(2-[4-hydroxyphenyl]ethyl)-4-hydroxy-3-methoxy-E-cinnamamide were prepared in methanol. Methanol was used as the control. 2500 μl of the DPPH solution were mixed with 500 μl of each test solution and the decrease in absorption at 515 nm was read until the decrease was less than 2% per hour. The activity of the test substances as free-radical scavengers was calculated using the following equation:
# Activity as free-radical scavenger (%)=100-(absorption of the test
# compounds)/(absorption of the control)×100.
# The activity as free-radical scavengers (%) in a series of dilutions of test compounds was used to calculate, for each test compound, the effective relative concentration EC50 (based on the starting concentration of DPPH, EC=c (test compound)/c(DPPH)) of a test compound, at which 50% of the free radical DPPH had been removed.
# [2] = accelerated autoxidation of lipids by air using a RANCIMAT apparatus (activity as antioxidants); settings: for AOI (antioxidative index) = IP(with test solution)/IP(control sample): 0.05% of test substance, soy bean oil, 100° C., dry air stream 20 l/h
# Method: The activity of example compounds 1 to 16 as antioxidants was compared with that of traditional antioxidants. The test system used was the accelerated autoxidation of lipids by air with or without antioxidant using a RANCIMAT apparatus (RANCIMAT is a registered trade mark of Metrohm AG, Herisau, Switzerland).
# The example compounds, vitamin C, α-tocopherol, BHT, ferulic acid and the naturally occurring N-(2-[4-hydroxyphenyl]-ethyl)-4-hydroxy-3-methoxy-E-cinnamamide were dissolved in methanol or acetone, and 100 μl of each test solution were added to a 3 g pre-prepared oil sample (soy bean oil, purified over alumina type N). In a control sample, only solvent was added. A constant, dry air stream (20 l/h) was blown through the oil sample, which contained the test solution and was heated to 100° C., and the volatile oxidation products (predominantly short-chain fatty acids such as formic or acetic acid) were collected in a receiver containing water. The conductivity of this aqueous solution was continuously measured and recorded. The oxidation of (unsaturated) fats proceeds only very slowly for some time and then suddenly increases. The time to the increase is referred to as the induction period (IP).
# The following equation was used to calculate the antioxidative index (AOI):
# AOI=IP(with test solution) /IP(control sample)
# [3] = comparison in words with reference substances
Compound,"EC50 (effective relative concentration, c(test compound)/c(DPPH), at which 50% of the free radical DPPH had been removed) [1] [mol/mol]","action as free-radical scavenger, in words [1, 3]",AOI (antioxidative index) = IP(with test solution)/IP(control sample) [2],"action as antioxidant, in words [2, 3]"
"COc1cc(/C=C/C(=O)NCCc2ccc(O)cc2)ccc1O [N-(2-[4-hydroxyphenyl]ethyl)-4-hydroxy-3-methoxy-E-cinnamamide, reference compound]",0.441,no better than α-tocopherol,1.41,no better than α-tocopherol
"Cc1c(C)c2c(c(C)c1O)CCC(C)(CCCC(C)CCCC(C)CCCC(C)C)O2 (stereo not drawn) [α-Tocopherol, α-tocopherol, reference compound]",0.250,,5.05,
"O=C(Cc1ccc(O)c(O)c1)NCc1ccc(O)c(O)c1 [Example 16, N-(3,4-Dihydroxybenzyl)-3,4-dihydroxyphenylacetamide]",0.053,,8.84,
"COc1cc(CNC(=O)Cc2ccc(O)c(O)c2)ccc1O [Example 15, N-(4-Hydroxy-3-methoxybenzyl)-3,4-dihydroxyphenylacetamide]",0.105,,7.84,
"COc1cc(CCC(=O)NCc2ccc(O)c(O)c2)ccc1O [Example 7, N-(3,4-Dihydroxybenzyl)-3-(4-hydroxy-3-methoxyphenyl)-propanamide]",0.094,,7.7,
"Cc1cc(C(C)(C)C)c(O)c(C(C)(C)C)c1 [BHT, 2,6-di-tert-butyl-4-methylphenol, reference compound]",0.240,,4.77,
"O=C1O[C@H]([C@@H](O)CO)C(O)=C1O [Vitamin C, L-ascorbic acid, reference compound]",0.270,,1.17,
"COc1cc(CNC(=O)/C=C/c2ccc(O)c(O)c2)ccc1O [Example 12, N-(4-Hydroxy-3-methoxybenzyl)-3,4-dihydroxy-E-cinnamamide]",0.089,,14.3,
"COc1cc(/C=C/C(=O)NCc2ccc(O)c(O)c2)cc(OC)c1O [Example 2, N-(3,4-Dihydroxybenzyl)-3,5-dimethoxy-4-hydroxy-E-cinnamamide]",0.097,,7.58,
"COc1cc(/C=C/C(=O)O)ccc1O [Ferulic acid, ferulic acid, reference compound]",0.350,,1.79,
"COc1cc(/C=C/C(=O)NCc2cc(O)c(O)c(O)c2)ccc1O [Example 5, N-(3,4,5-Trihydroxybenzyl)-4-hydroxy-3-methoxy-E-cinnamamide]",0.0097,,21.4,
"COc1cc(CNC(=O)CCc2ccc(O)c(O)c2)ccc1O [Example 8, N-(4-Hydroxy-3-methoxybenzyl)-3-(3,4-dihydroxyphenyl)-proyanamide]",0.119,,13.2,
"COc1cc(CNC(=O)/C=C/c2ccc(O)c(O)c2)cc(OC)c1O [Example 13, N-(3,5-Dimethoxy-4-hydroxybenzyl)-3,4-dihydroxy-E-cinnamamide]",0.1,,3.6,
"O=C(/C=C/c1ccc(O)c(O)c1)NCc1ccc(O)c(O)c1O [Example 14, N-(2,3,4-Trihydroxybenzyl)-3,4-dihydroxy-E-cinnamamide]",0.054,,27.5,
"COc1cc(/C=C/C(=O)NCc2ccc(O)c(O)c2)ccc1O [Example 1, N-(3,4-Dihydroxybenzyl)-4-hydroxy-3-methoxy-E-cinnamamide]",0.1,,11.41,
"O=C(/C=C/c1ccc(O)c(O)c1)NCc1ccc(O)c(O)c1 [Example 11, N-(3,4-Dihydroxybenzyl)-3,4-dihydroxy-E-cinnamamide]",0.043,,14.9,
"COc1cc(CC(=O)NCc2ccc(O)c(O)c2)ccc1O [Example 6, N-(3,4-Dihydroxybenzyl)-4-hydroxy-3-methoxyphenylacetamide]",0.103,,13.9,
"COc1cc(/C=C/C(=O)NCc2ccc(O)c(O)c2O)cc(OC)c1O [Example 4, N-(2,3,4-Trihydroxybenzyl)-3,5-dimethoxy-4-hydroxy-E-cinnamamide]",0.1,,17.3,
"O=C(CCc1ccc(O)c(O)c1)NCc1ccc(O)c(O)c1 [Example 9, N-(3,4-Dihydroxybenzyl)-3-(3,4-dihydroxyphenyl)-propanamide]",0.07,,19.8,
"COc1cc(/C=C/C(=O)NCc2ccc(O)c(O)c2O)ccc1O [Example 3, N-(2,3,4-Trihydroxybenzyl)-4-hydroxy-3-methoxy-E-cinnamamide]",0.097,,11.7,
"O=C(CCc1ccc(O)c(O)c1)NCc1ccc(O)c(O)c1O [Example 10, N-(2,3,4-Trihydroxybenzyl)-3-(3,4-dihydroxyphenyl)-pronanamide]",0.069,,24.6,
